Common to all, as to assay type: cell-based
One series concerns the target 3R Shaker K channel (Drosophila melanogaster, UniProt P08510, A359R/M356R). Kind of series: physchem. As to conditions: for compound-induced G(V) shift (mean±SEM) / G(V) shift: pH 7.4, Xenopus oocytes; for G(V) shift: Table 1; for relative current amplitude: representative traces at voltage giving 10% of maximum conductance in control; for ΔG(V) of representative G(V) curves (single examples): pH 7.4, same cells as representative traces. From the text: A 3R Shaker K channel is a modified Shaker K channel where residues 356 and 359 are mutated to arginines.
(§1) All animal experiments were approved by the local Animal Care and Use Committee and followed international guidelines. A modified Shaker H4 channel^30, with removed N-type inactivation (ShH4IR)^31, here called the wild type (WT) channel, was expressed in oocytes. In addition, a modified 3R Shaker K channel where two introduced positive charged arginines (M356R and A359R) in addition to one native arginine (R362) makes the channel more sensitive to DHA^16, was expressed in oocytes and in a CHO—K1 stable cell line.
(§2) African clawed frogs (Xenopus laevis) were anesthetized with 1.4 g/L ethyl 3-aminobenzoate methanesulfonate salt (tricaine). After an incision through the abdomen a batch of oocytes were removed. Clusters of oocytes were separated by incubation for ˜1 h in a Ca-free O—R2 solution (in mM: 82.5 NaCl, 2 KCl, 5 HEPES, and 1 MgCl2; pH adjusted to 7.4 by NaOH) containing Liberase Blendzyme. The oocytes were then incubated at 8° C. in a modified Barth's solution (MBS; in mM: 88 NaCl, 1 KCl, 2.4 NaHCO3, 15 HEPES, 0.33 Ca(NO3)2, 0.41 CaCl2, and 0.82 MgSO4; pH adjusted to 7.6 by NaOH) supplemented with penicillin (25 U/ml), streptomycin (25 μg/ml), and sodium pyruvate (2.5 mM) 2-24 hours before injection. Fifty nl of cRNA (50 pg) were injected into each oocyte using a Nanoject injector (Drummond Scientific, Broomall, Pa.). Injected oocytes were kept at 8° C. in MBS until one day before electrophysiological recordings, when they were incubated at 16° C. All chemicals were supplied from Sigma-Aldrich (Stockholm, Sweden) if not stated otherwise.
(§3) All manual electrophysiological recordings were performed at room temperature (20-23° C.), using a GeneClamp 500B amplifier (for oocytes) or a Axopatch 200B amplifier (for manual patch clamp of CHO—K1 cells and DRG neurons) and a Digidata 1440A digitizer and pClamp 10 software (all from Molecular Devices, Inc., Sunnyvale, Calif., USA). Compounds were dissolved to 100 mM in 99.5% EtOH and stored at −20° C. Compounds were diluted in extracellular solution to the desired test concentration.
(§4) The oocyte was placed in a bath surrounded by 1K extracellular solution that contained (in mM): 88 NaCl, 1 KCl, 15 HEPES, 0.4 CaCl2, and 0.8 MgCl2, pH adjusted to 7.4 by NaOH (reaching a sodium concentration of ˜100 mM). Control solution was added to the bath with a gravity driven perfusion system. Compound solution was added to the bath manually with a syringe. Two glass microelectrodes were inserted into the oocyte using micromanipulators. […] All channels were closed when the potential was clamped to −80 mV and this voltage was set as the holding potential. Currents were evoked from the holding potential of −80 mV by 100-ms long, 5-mV steps ranging from −80 up to +50 mV (WT) and +70 mV (3R).
(§5) Conductance GK(V) was calculated as GK(V)=[…], (Eq. 1) where IK is the average current from the steady-state phase at the end of each 100-ms pulse, V is the membrane voltage, and Vrev is the reversal potential for K^+, (set to −80 mV for the oocytes, and calculated to be −89 mV for the CHO—K1 cells).
(§6) G(V)=A/(1+exp((V1/2−V)/s))^n (Eq. 2) where A is amplitude of the curve, V is the absolute membrane voltage, V1/2 is the midpoint, s is the slope and n is an exponent set to 4^17. The compound-induced G(V) shift was determined at the 10% level of the maximum conductance in control solution^17. The compound-induced G(V) shift in CHO—K1 was quantified by subtracting the control V1/2 from the compound V1/2 when n was set to 1.
(§7) Data for concentration and pH dependent G(V) shifts (ΔV) in oocytes were fit with a dose-response equation ΔV=ΔVmax/(1+c1/2/c), (Eq. 3) where Δvmax is the maximal shift, c1/2 is half maximal effective concentration/pKa value and c is the concentration.

The subject of another series is HL-1 cells. Kind of series: Membrane potential and firing of spontaneously beating HL-1 cells, whole-cell current clamp. As to conditions: 10 uM. Here is the method:
All conventional chemicals were purchased from Sigma-Aldrich (Stockholm, Sweden). The DHAA derivatives were diluted in ethanol in a 100 mM stock solution. The stock solutions were stored at −20 t for further use.
The cell culture was done according to a previous study (Claycomb et al., Proceedings of the National Academy of Sciences of the United States of America 1998; 95:2979-2984). In brief, cells were grown on gelating fibronectin coated T75 flasks. They were maintained in Claycomb Medium which was supplemented with 10% fetal bovine serum, 2 mM L-glutamine, 0.1 mM noradrenaline, and 100 U/ml, 100 μg/ml penicillin-streptomycin. Enzymatic dissociation with 0.05% trypsin-EDTA was done after full confluence. Isolated cells were plated on fibronectin-gelatin coated plastic coverslips and used for recording.
Whole-cell current-clamp recordings were done on confluent cells at 35±1° C., using an Axopatch 200B amplifier (Molecular Devices, Sunnyvale, Calif.). Patch pipettes were fabricated from borosilicate capillary glass on a vertical pipette puller and had resistances of 3-5 MO. Data were stored on a computer through Digidata 1440A interface (Molecular Devices), and was analyzed with pCLAMP software (version 10.1, Molecular Devices). The bath solution contained the following (in mM): 140 NaCl, 5.4 KCl, 1 MgCl2, 1.8 CaCl2, 10 HEPES, and 10 glucose (pH adjusted to 7.4 with NaOH). The micropipettes were filled with a solution containing (in mM): 130 K-gluconate, 9 KCl, 8 NaCl, 1 MgCl2, 10 EGTA, 10 HEPES, and 3 Na2ATP (pH adjusted to 7.3 with KOH).

For a further series, the target named is WT Shaker K channel (Drosophila melanogaster, UniProt P08510, DEL6-46). In words: physchem. The note with it: 100 μM; for G(V) shift for WT: pH 7.4, Xenopus oocytes.
Source text: A Shaker K channel is a Kv channel from the fruit fly Drosophila melanogaster. It is homologous to the human Kv1-type ion channels.
as §1, §2, §3, §4, §5, §6, §7

The pKa is the negative logarithm of the acid dissociation constant. As usually defined, the Kd is the constant that tells how readily two partners part at equilibrium.

3R Shaker K channel, sequence (P08510 whole entry M356R/A359R): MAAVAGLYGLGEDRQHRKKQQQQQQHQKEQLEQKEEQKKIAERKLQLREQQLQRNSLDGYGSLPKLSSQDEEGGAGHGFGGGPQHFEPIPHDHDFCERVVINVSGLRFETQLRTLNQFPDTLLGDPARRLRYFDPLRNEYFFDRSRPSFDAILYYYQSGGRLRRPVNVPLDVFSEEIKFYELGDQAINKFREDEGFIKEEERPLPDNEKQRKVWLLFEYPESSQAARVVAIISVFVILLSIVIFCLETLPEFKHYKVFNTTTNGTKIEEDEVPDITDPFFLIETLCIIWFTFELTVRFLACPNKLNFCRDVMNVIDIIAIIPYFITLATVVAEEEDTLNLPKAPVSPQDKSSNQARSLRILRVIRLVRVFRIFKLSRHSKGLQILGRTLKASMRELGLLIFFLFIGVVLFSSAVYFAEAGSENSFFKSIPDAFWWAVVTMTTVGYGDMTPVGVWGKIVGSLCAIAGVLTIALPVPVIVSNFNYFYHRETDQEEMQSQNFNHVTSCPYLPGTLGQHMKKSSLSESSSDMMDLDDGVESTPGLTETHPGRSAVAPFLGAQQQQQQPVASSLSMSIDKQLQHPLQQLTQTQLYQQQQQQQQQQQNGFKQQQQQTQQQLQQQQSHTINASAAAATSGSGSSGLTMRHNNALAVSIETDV
WT Shaker K channel, sequence (P08510 other isoform, or with tags, fused parts or gaps DEL6-46): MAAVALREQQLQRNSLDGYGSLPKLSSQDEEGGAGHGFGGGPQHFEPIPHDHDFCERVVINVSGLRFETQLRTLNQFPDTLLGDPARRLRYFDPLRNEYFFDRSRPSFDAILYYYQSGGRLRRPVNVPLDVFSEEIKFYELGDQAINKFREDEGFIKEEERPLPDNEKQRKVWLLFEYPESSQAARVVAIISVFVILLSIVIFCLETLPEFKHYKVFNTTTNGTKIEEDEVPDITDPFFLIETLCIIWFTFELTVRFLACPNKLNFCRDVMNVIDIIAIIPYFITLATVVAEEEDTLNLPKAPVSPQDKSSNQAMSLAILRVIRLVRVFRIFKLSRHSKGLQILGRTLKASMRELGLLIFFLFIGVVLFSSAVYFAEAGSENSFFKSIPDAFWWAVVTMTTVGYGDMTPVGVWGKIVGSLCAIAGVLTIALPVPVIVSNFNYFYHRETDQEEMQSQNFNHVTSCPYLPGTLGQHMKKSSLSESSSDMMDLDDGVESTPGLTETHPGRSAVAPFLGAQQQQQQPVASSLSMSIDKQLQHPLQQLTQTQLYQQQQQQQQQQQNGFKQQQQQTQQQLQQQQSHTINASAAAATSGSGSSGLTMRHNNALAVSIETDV

`C=CCO/N=C1\CC2[C@](C)(C(=O)O)CCC[C@]2(C)c2ccc(C(C)C)cc21` (some centres unmarked) [Compound K8]: on 3R Shaker K channel (100 μM), the “compound-induced G(V) shift (mean±SEM)” value is −17.8±1.9 mV and the “G(V) shift” value is listed as −17.8 mV. At 3R Shaker K channel (C7-modified DHAA, 100 μM, pH 7.4), the “effect on G(V) shift / current compared with DHAA” value was “significantly increased the effect”. In addition, the “Effects on K channel Mean ± SEM” value on 3R Shaker K channel (Table 2, K channel expressed in Xenopus oocytes) was −17.8 ± 1.9 mV. At 3R Shaker K channel (100 μM, pH 7.4), this molecule returned a relative current amplitude of 7.6 times. In the series with HL-1 cells, the “Effects on HL-1 cells Mean (membrane potential)” value is recorded as −3.6 mV.

As for `CC(C)c1ccc2c(c1)CC[C@H]1[C@](C)(C(=O)O)CCC[C@]21C` [DHAA, dehydroabietic acid], the pKa amounted to 7.2 at WT Shaker K channel (Drosophila melanogaster, from pH dependence of G(V) shift) and 7.3 on 3R Shaker K channel (Drosophila melanogaster, from pH dependence of G(V) shift, 100 μM). The Kd at 3R Shaker K channel worked out at 89 µM.

For `CC/C=C\C/C=C\C/C=C\C/C=C\C/C=C\C/C=C\CCC(=O)O` [DHA], on WT Shaker K channel, the “G(V) shift for WT” value is reported as −6.0 mV.

For the molecule `C=C[C@@]1(C)CC[C@H]2C(=CC[C@@H]3[C@]2(C)CCC[C@@]3(C)C(=O)O)C1` [Iso-PiMA, isopimaric acid, reference compound], the “G(V) shift for WT” value on WT Shaker K channel was “much smaller effects on WT compared to the 3R Shaker K channel”. Also, on 3R Shaker K channel (100 μM), the “compound-induced G(V) shift (mean±SEM)” value is −15.9±1.8 mV and the “ΔG(V) of representative G(V) curves (single examples)” value (“ΔG(V) of representative G(V) curves” below) is on record as −20.0 mV. Besides, the relative current amplitude on 3R Shaker K channel (100 μM, pH 7.4) worked out at 5.7 times.

As for `C=C[C@@]1(C)C=C2CC[C@@H]3[C@](C)(CCC[C@@]3(C)C(=O)O)[C@H]2CC1` [PiMA, pimaric acid, reference compound], at WT Shaker K channel, the “G(V) shift for WT” value is “much smaller effects on WT compared to the 3R Shaker K channel”. For the same molecule, at 3R Shaker K channel (100 μM), the “compound-induced G(V) shift (mean±SEM)” value was −10.4±0.8 mV and the “ΔG(V) of representative G(V) curves” value is −10.8 mV. Also, the relative current amplitude at 3R Shaker K channel (100 μM, pH 7.4) is 2.4 times.

For `C[C@]1(C(=O)O)CCC[C@]2(C)c3cc(O)ccc3CC[C@@H]12` [PoCA, podocarpic acid, reference compound], on WT Shaker K channel, the “G(V) shift for WT” value was “not significantly different from the 3R Shaker K channel”. For the same molecule, on 3R Shaker K channel (100 μM), the “ΔG(V) of representative G(V) curves” value is given as “+0.1 mV”. This molecule gave a relative current amplitude on 3R Shaker K channel (100 μM, pH 7.4) of 1.0 times.

In the case of `C[C@@]1(C(=O)O)CCC[C@]2(C)c3ccc(Cl)c(Cl)c3CCC12` (stereo partly drawn) [Wu115, (1R,4aS)-7,8-dichloro-1,4a-dimethyl-1,2,3,4,4a,9,10,10a-octahydrophenanthrene-1-carboxylic acid], on 3R Shaker K channel (100 μM), the “G(V) shift” value is on record as −24.2 mV.

As to `CC(C)c1cc2c(cc1F)[C@@]1(C)CCC[C@@](C)(C(=O)O)[C@@H]1CC2=O` [Wu116], the “G(V) shift” value on 3R Shaker K channel (100 μM) is recorded as −4.4 mV.

Take `C=Cc1cc2c(cc1C(C)C)C(=O)C[C@H]1[C@](C)(C(=O)O)CCC[C@]21C` [Wu118]: the “G(V) shift” value on 3R Shaker K channel (100 μM) came to 0.2 mV.

Turning to `C=Cc1cc2c(cc1C(C)C)/C(=N/OC)CC1[C@](C)(C(=O)O)CCC[C@]21C` (stereo partly drawn) [Wu119, (1R,4aS,E)-7-isopropyl-9-(methoxyimino)-1,4a-dimethyl-6-vinyl-1,2,3,4,4a,9,10,10a-octahydrophenanthrene-1-carboxylic acid], at 3R Shaker K channel (100 μM), the “G(V) shift” value is given as −30.3 mV.

`C=CCO/N=C1\CC2[C@](C)(C(=O)O)CCC[C@]2(C)c2cc(C=C)c(C(C)C)cc21` (stereo partly drawn) [Wu120, (1R,4aS,E)-9-((allyloxy)imino)-7-isopropyl-1,4a-dimethyl-6-vinyl-1,2,3,4,4a,9,10,10a-octahydrophenanthrene-1-carboxylic acid]: the “G(V) shift” value at 3R Shaker K channel (100 μM) was −26.1 mV.

For `CC(C)c1cc2c(cc1C1CC1)[C@@]1(C)CCC[C@@](C)(C(=O)O)C1CC2=O` (stereo partly drawn) [Wu121, (1R,4aS)-6-cyclopropyl-7-isopropyl-1,4a-dimethyl-9-oxo-1,2,3,4,4a,9,10,10a-octahydrophenanthrene-1-carboxylic acid], the “G(V) shift” value on 3R Shaker K channel (100 μM) is recorded as −6.7 mV.

`CO/N=C1\CC2[C@](C)(C(=O)O)CCC[C@]2(C)c2cc(C3CC3)c(C(C)C)cc21` (stereo partly drawn) [Wu122, (1R,4aS,E)-6-cyclopropyl-7-isopropyl-9-(methoxyimino)-1,4a-dimethyl-1,2,3,4,4a,9,10,10a-octahydrophenanthrene-1-carboxylic acid]: the “G(V) shift” value on 3R Shaker K channel (100 μM) is listed as −32.3 mV.

Consider `C=CCO/N=C1\CC2[C@](C)(C(=O)O)CCC[C@]2(C)c2cc(C3CC3)c(C(C)C)cc21` (stereo partly drawn) [Wu123, (1R,4aS,E)-9-((allyloxy)imino)-6-cyclopropyl-7-isopropyl-1,4a-dimethyl-1,2,3,4,4a,9,10,10a-octahydrophenanthrene-1-carboxylic acid], for which the “G(V) shift” value on 3R Shaker K channel (100 μM) was −26.3 mV.

As for `CC(C)c1ccc2c(c1-c1ccccc1)CC[C@H]1[C@](C)(C(=O)O)CCC[C@]21C` [Wu124], at 3R Shaker K channel (100 μM), the “G(V) shift” value is −0.4 mV.

For the molecule `CC(C)c1ccc2c(c1C1CC1)CC[C@H]1[C@](C)(C(=O)O)CCC[C@]21C` [Wu127], on 3R Shaker K channel (100 μM), the “G(V) shift” value is −9.6 mV.

As for `C[C@]1(C(=O)O)CCC[C@]2(C)c3ccccc3CCC12` (stereo partly drawn) [Wu129, (1S,4aS)-1,4a-dimethyl-1,2,3,4,4a,9,10,10a-octahydrophenanthrene-1-carboxylic acid], the “G(V) shift” value at 3R Shaker K channel (100 μM) is recorded as −5.1 mV.

Take `C[C@@]1(C(=O)O)CCC[C@]2(C)c3c(Cl)c(Cl)c(Cl)c(Cl)c3CCC12` (stereo partly drawn) [Wu133, (1R,4aS)-5,6,7,8-tetrachloro-1,4a-dimethyl-1,2,3,4,4a,9,10,10a-octahydrophenanthrene-1-carboxylic acid]: the “G(V) shift” value on 3R Shaker K channel (100 μM) is −25.6 mV.

`C[C@]1(C(=O)O)CCC[C@]2(C)c3cc(Cl)ccc3CCC12` (stereo partly drawn) [Wu135, (1S,4aS)-6-chloro-1,4a-dimethyl-1,2,3,4,4a,9,10,10a-octahydrophenanthrene-1-carboxylic acid]: the “G(V) shift” value on 3R Shaker K channel (100 μM) is reported as −12.0 mV.

Regarding `C[C@]1(C(=O)O)CCC[C@]2(C)c3ccc(Cl)cc3CCC12` (stereo partly drawn) [Wu136, (1S,4aS)-7-chloro-1,4a-dimethyl-1,2,3,4,4a,9,10,10a-octahydrophenanthrene-1-carboxylic acid], the “G(V) shift” value at 3R Shaker K channel (100 μM) is listed as −17.8 mV.
